{"source": "patent US20140057842A1", "about": "“COMPOSITIONS AND METHODS FOR CELL HOMING AND ADIPOGENESIS” (The Trustees of Columbia University in the City of New York, priority 2010, published 2014)", "key": {"TGFβ/Activin pathway": {"tested_on": "TGFβ/Activin pathway", "experiment": "Western blot analysis of hADSCs 1-hour post-treatment, TGFβ/Activin pathway", "format": "cell-based, human", "conditions": "2 μM with ADM or alone", "experimental": "(§1) Western blot analysis was performed 1-hour post-treatment in hADSCs treated with: control medium (Control); adipogenic differentiation medium (ADM); ADM plus 2 μM of Pyrintegrin (ADM+Drug); and Pyrintegrin alone (Drug)."}, "hADSCs [1]": {"tested_on": "hADSCs", "experiment": "C/EBPα expression of hADSCs followed for 28 days", "format": "cell-based, human", "conditions": "ADM plus 2 μM Pyrintegrin, compared with ADM alone", "experimental": "(§2) Change in C/EBPα expression of hADSCs were followed for 28 days. hADSCs were treated with: control medium; adipogenic differentiation medium (ADM); ADM plus 10 μM of Notch gamma Secretase Inhibitor (Inh1) (ADM+Inh1); ADM plus 10 μM of MAPK Inhibitor (Inh2) (ADM+Inh2); and ADM plus 10 μM of Inh1 and Inh2 (ADM+Inh1, 2).\nC/EBPα expression was measured for 28 days in hADSCs treated with: control medium; adipogenic differentiation medium (ADM); and ADM plus 2 μM of Pyrintegrin (ADM+Pyrintegrin)."}, "hADSCs [2]": {"tested_on": "hADSCs", "experiment": "Adiponectin content of hADSCs at two and four weeks post-treatment", "format": "cell-based, human", "conditions": "ADM plus 2 μM Pyrintegrin", "experimental": "(§3) At two and four weeks post-treatment, Adiponectin content was measure in hADSCs treated with: control medium; adipogenic differentiation medium (ADM); ADM plus 10 μM of Notch gamma Secretase Inhibitor (Inh1) (ADM+Inh1); ADM plus 10 μM of MAPK Inhibitor (Inh2) (ADM+Inh2), and ADM plus 10 μM of Inh1 and Inh2 (ADM+Inh1, 2).\nAt two and four weeks post-treatment, Adiponectin content was measured in hADSCs treated with: control medium; adipogenic differentiation medium (ADM); and ADM plus 2 μM of Pyrintegrin (ADM+Drug)."}, "BMP pathway": {"tested_on": "BMP pathway", "experiment": "Western blot analysis of hADSCs 1-hour post-treatment, phosphorylation of Smad1/5/8", "format": "cell-based, human", "conditions": "2 μM with ADM or alone", "experimental": "as §1"}, "hADSCs [3]": {"tested_on": "hADSCs", "experiment": "Glycerol content of hADSCs at two and four weeks post-treatment", "format": "cell-based, human", "conditions": "ADM plus 2 μM Pyrintegrin", "experimental": "At two and four weeks post-treatment, Glycerol content was measured in hADSCs treated with: control medium; adipogenic differentiation medium (ADM); and ADM plus 2 μM of Pyrintegrin (ADM+Drug)."}, "hADSCs [4]": {"tested_on": "hADSCs", "experiment": "Leptin content of hADSCs at two and four weeks post-treatment", "format": "cell-based, human", "conditions": "ADM plus 2 μM Pyrintegrin", "experimental": "as §3, with “Leptin” for “Adiponectin”, “measured” for “measure”, “(ADM+Inh2);” for “(ADM+Inh2),”\nAt two and four weeks post-treatment, Leptin content was measured in hADSCs treated with: control medium; adipogenic differentiation medium (ADM); and ADM plus 2 μM of Pyrintegrin (ADM+Drug)."}, "hADSCs [5]": {"tested_on": "hADSCs", "experiment": "PPARγ expression of hADSCs followed for 28 days", "format": "cell-based, human", "conditions": "ADM plus 2 μM Pyrintegrin, compared with ADM alone", "experimental": "as §2, with “PPARγ” for “C/EBPα”\nPPARγ expression was measured for 28 days in hADSCs treated with: control medium; adipogenic differentiation medium (ADM); and ADM plus 2 μM of Pyrintegrin (ADM+Pyrintegrin)."}, "hADSCs [6]": {"tested_on": "hADSCs", "experiment": "PPARγ and C/EBPα gene expression of hADSCs four days post-treatment with Pyrintegrin without ADM", "format": "cell-based, human", "conditions": "control medium plus 2 μM or 10 μM Pyrintegrin", "experimental": "PPARγ and C/EBPα gene expression was measured at four days post-treatment in hADSCs treated with: control medium (Control); control medium plus 2 μM of Pyrintegrin (Control+Drug 2 μM); control medium plus 10 μM of Pyrintegrin (Control+Drug 10 μM) and adipogenic medium (ADM)."}, "hADSCs [7]": {"tested_on": "hADSCs", "experiment": "Lipid staining / brightfield images of hADSCs four weeks post-treatment", "format": "cell-based, human", "conditions": "ADM plus Pyrintegrin, compared with ADM alone", "experimental": "Brightfield images were produced four weeks post-treatment of hADSCs with: (A) ADM; (B) ADM+Inh1; (C) ADM+Inh2; and (D) ADM+Inh1, 2 (see e.g., FIG. 6 A-D).\nLipid staining was performed four weeks post-treatment of hADSCs with: (A) ADM; and (B) ADM plus Pyrintegrin (ADM+Pyrintegrin)."}, "[8]": {"tested_on": "adipocyte stem cells (ASCs)", "experiment": "Adipogenesis of adipocyte stem cells treated with EGFR antagonist (marker expression, glycerol and leptin contents)", "format": "cell-based", "conditions": "50 ng/mL in adipogenic medium", "from_the_text": "Together, the adipogenic differentiation capacity of ASCs was restored to a similar level to without HSC co-culture."}}}
{"molecule": "O=S(=O)(NCC1CC1)c1ccc(Nc2nccc(N3CCCc4cc(O)ccc43)n2)cc1", "note": "[Pyrintegrin, N-(Cyclopropylmethyl)-4-(4-(6-hydroxy-3,4-dihydroquinolin-1-(2H)-yl)pyrimidin-2-ylamino)benzenesulfonamide]", "values": [{"measurement": "TGFβ/Activin pathway inhibition", "setting": "TGFβ/Activin pathway", "result": "does not target the TGFβ/Activin pathway"}, {"measurement": "C/EBPα expression in hADSCs", "setting": "hADSCs [1]", "result": "more potent in inducing C/EBPα expression"}, {"measurement": "secretion of Adiponectin cytokine by hADSCs", "setting": "hADSCs [2]", "result": "enhanced the secretion of Adiponectin cytokine"}, {"measurement": "phosphorylation of Smad1/5/8 (BMP pathway)", "setting": "BMP pathway", "result": "prevents the phosphorylation of Smad1/5/8"}, {"measurement": "secretion of Glycerol by hADSCs", "setting": "hADSCs [3]", "result": "enhanced the secretion of Glycerol"}, {"measurement": "secretion of Leptin cytokine by hADSCs", "setting": "hADSCs [4]", "result": "enhanced the secretion of Leptin cytokine"}, {"measurement": "PPARγ expression in hADSCs", "setting": "hADSCs [5]", "result": "more potent in inducing PPARγ expression"}, {"measurement": "adipogenic differentiation of hADSCs (PPARγ and C/EBPα gene expression)", "setting": "hADSCs [6]", "result": "can induce hADSCs towards an adipogenic differentiation pathway"}, {"measurement": "lipid accumulation in hADSCs", "setting": "hADSCs [7]", "result": "more potent in inducing lipid accumulation"}]}
{"molecule": "EGF: EGF added at 50 ng/mL to the adipogenic medium (NSDSECPLSHDGYCLHDGVCMYIEALDKYACNCVVGYIGERCQYRDLKWWELR; UniProt P01133 971-1023, looked up)", "values": [{"measurement": "adipogenesis of ASCs on addition of EGF to the adipogenic medium", "setting": "[8]", "result": "further inhibited adipogenesis"}]}
